Structures can show the parent of a compound that is named as a salt.
Target: TrkA (Homo sapiens (Human), UniProt P04629)
Experiment: TrkA Omnia Assay
Assay type: biochemical
Conditions: averaged IC50; 20 nM enzyme, 500 μM ATP, 10 μM peptide substrate
Summary of the method: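 Recombinant TrkA (20 nM) preincubated 10 min at ambient temperature with compound, then Omnia Tyr Peptide #4 (10 μM) and ATP (500 μM) added in 25 mM MOPS pH 7.5, 5 mM MgCl2, 0.005% Triton X-100. Fluorescence (ex 360/em 485 nm) followed continuously for 70 min; IC50 from initial rates by 4- or 5-parameter logistic fit.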

Chain of TrkA (P04629 33-796): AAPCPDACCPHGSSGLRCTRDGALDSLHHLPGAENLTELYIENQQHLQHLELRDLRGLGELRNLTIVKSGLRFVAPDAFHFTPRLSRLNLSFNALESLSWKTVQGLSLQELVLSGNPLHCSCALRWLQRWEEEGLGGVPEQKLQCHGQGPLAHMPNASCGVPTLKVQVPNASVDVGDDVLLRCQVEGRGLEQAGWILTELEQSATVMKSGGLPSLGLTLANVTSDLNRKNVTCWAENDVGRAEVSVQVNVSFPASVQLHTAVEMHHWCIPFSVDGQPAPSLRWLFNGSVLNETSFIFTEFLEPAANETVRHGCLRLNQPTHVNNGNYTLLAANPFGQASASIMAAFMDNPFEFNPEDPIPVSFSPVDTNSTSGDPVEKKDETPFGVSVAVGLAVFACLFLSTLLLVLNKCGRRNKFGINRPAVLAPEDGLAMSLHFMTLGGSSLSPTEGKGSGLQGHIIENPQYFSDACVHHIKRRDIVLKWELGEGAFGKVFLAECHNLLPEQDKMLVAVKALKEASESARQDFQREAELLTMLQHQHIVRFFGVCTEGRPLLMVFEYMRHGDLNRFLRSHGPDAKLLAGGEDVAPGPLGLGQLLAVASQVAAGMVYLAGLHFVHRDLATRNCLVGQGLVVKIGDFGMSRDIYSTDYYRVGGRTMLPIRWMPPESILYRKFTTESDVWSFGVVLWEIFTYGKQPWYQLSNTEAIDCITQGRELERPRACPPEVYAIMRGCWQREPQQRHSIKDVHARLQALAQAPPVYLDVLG

| SMILES | IC50 [nM] |
| --- | --- |
| COCCN1C[C@@H](NC(=O)Nc2c(Br)c(C3CCNCC3)nn2-c2ccccc2)[C@H](c2ccc(F)c(F)c2)C1 [Example 582, 1-(4-bromo-1-phenyl-3-(piperidin-4-yl)-1H-pyrazol-5-yl)-3-((3S,4R)-4-(3,4-difluorophenyl)-1-(2-methoxyethyl)pyrrolidin-3-yl)urea dihydrochloride] | < 100 |
| COCCN1C[C@@H](NC(=O)Nc2c(C)c([C@H]3CCCN3)nn2-c2ccccc2)[C@H](c2ccc(F)c(F)c2)C1 [Example 583, 1-((3S,4R)-4-(3,4-difluorophenyl)-1-(2-methoxyethyl)pyrrolidin-3-yl)-3-(4-methyl-1-phenyl-3-((R)-pyrrolidin-2-yl)-1H-pyrazol-5-yl)urea dihydrochloride] | < 100 |
| COCCN1C[C@@H](NC(=O)Nc2c(C)c([C@@H]3CCCN3)nn2-c2ccccc2)[C@H](c2ccc(F)c(F)c2)C1 [Example 584, 1-((3S,4R)-4-(3,4-difluorophenyl)-1-(2-methoxyethyl)pyrrolidin-3-yl)-3-(4-methyl-1-phenyl-3-((S)-pyrrolidin-2-yl)-1H-pyrazol-5-yl)urea dihydrochloride] | < 100 |
| COCCN1C[C@@H](NC(=O)Nc2c(Cl)c([C@H]3CCCN3)nn2-c2ccccc2)[C@H](c2ccc(F)c(F)c2)C1 [Example 585, 1-((3S,4R)-4-(3,4-difluorophenyl)-1-(2-methoxyethyl)pyrrolidin-3-yl)-3-(4-chloro-1-phenyl-3-((R)-pyrrolidin-2-yl)-1H-pyrazol-5-yl)urea dihydrochloride] | < 100 |
| COCCN1C[C@@H](NC(=O)Nc2c(C)c([C@@H]3CCCN3)nn2-c2ccccc2)[C@H](c2cc(F)cc(F)c2)C1 [Example 586, 1-((3S,4R)-4-(3,5-difluorophenyl)-1-(2-methoxyethyl)pyrrolidin-3-yl)-3-(4-methyl-1-phenyl-3-((S)-pyrrolidin-2-yl)-1H-pyrazol-5-yl)urea dihydrochloride] | < 100 |
| COCCN1C[C@@H](NC(=O)Nc2c(Cl)c([C@@H]3CCCN3)nn2-c2ccccc2)[C@H](c2ccc(F)c(F)c2)C1 [Example 587, 1-((3S,4R)-4-(3,4-difluorophenyl)-1-(2-methoxyethyl)pyrrolidin-3-yl)-3-(4-chloro-1-phenyl-3-((S)-pyrrolidin-2-yl)-1H-pyrazol-5-yl)urea dihydrochloride] | < 100 |
| COCCN1C[C@@H](NC(=O)Nc2c(Br)c([C@H]3CCCN3)nn2-c2ccccc2)[C@H](c2ccc(F)c(F)c2)C1 [Example 588, 1-(4-bromo-1-phenyl-3-((R)-pyrrolidin-2-yl)-1H-pyrazol-5-yl)-3-((3S,4R)-4-(3,4-difluorophenyl)-1-(2-methoxyethyl)pyrrolidin-3-yl)urea dihydrochloride] | < 100 |
| COCCN1C[C@@H](NC(=O)Nc2cc(COC3CCNCC3)nn2-c2ccccc2)[C@H](c2ccc(F)c(F)c2)C1 [Example 589, 1-((3S,4R)-4-(3,4-difluorophenyl)-1-(2-methoxyethyl)pyrrolidin-3-yl)-3-(1-phenyl-3-((piperidin-4-yloxy)methyl)-1H-pyrazol-5-yl)urea dihydrochloride] | 100 to 1000 |
| COCCN1C[C@@H](NC(=O)Nc2c(Cl)c(COC3CCNCC3)nn2-c2ccccc2)[C@H](c2ccc(F)c(F)c2)C1 [Example 590, 1-(4-chloro-1-phenyl-3-((piperidin-4-yloxy)methyl)-1H-pyrazol-5-yl)-3-((3S,4R)-4-(3,4-difluorophenyl)-1-(2-methoxyethyl)pyrrolidin-3-yl)urea dihydrochloride] | < 100 |
| COCCN1C[C@@H](NC(=O)Nc2c(Br)c(COC3CCNCC3)nn2-c2ccccc2)[C@H](c2ccc(F)c(F)c2)C1 [Example 591, 1-(4-bromo-1-phenyl-3-((piperidin-4-yloxy)methyl)-1H-pyrazol-5-yl)-3-((3S,4R)-4-(3,4-difluorophenyl)-1-(2-methoxyethyl)pyrrolidin-3-yl)urea dihydrochloride] | < 100 |
| COCCN1C[C@@H](NC(=O)Nc2c(Br)c(C3CCN(S(C)(=O)=O)CC3)nn2-c2ccccc2)[C@H](c2ccc(F)c(F)c2)C1 [Example 592, 1-(4-bromo-3-(1-(methylsulfonyl)piperidin-4-yl)-1-phenyl-1H-pyrazol-5-yl)-3-((3S,4R)-4-(3,4-difluorophenyl)-1-(2-methoxyethyl)pyrrolidin-3-yl)urea] | < 100 |
| COCCN1C[C@@H](NC(=O)Nc2c(Br)c(C3CCN(C(C)=O)CC3)nn2-c2ccccc2)[C@H](c2ccc(F)c(F)c2)C1 [Example 593, 1-(3-(1-acetylpiperidin-4-yl)-4-bromo-1-phenyl-1H-pyrazol-5-yl)-3-((3S,4R)-4-(3,4-difluorophenyl)-1-(2-methoxyethyl)pyrrolidin-3-yl)urea] | < 100 |
| COCCN1C[C@@H](NC(=O)Nc2c(Cl)c(C3CCN(S(=O)(=O)C(F)(F)F)CC3)nn2-c2ccccc2)[C@H](c2ccc(F)c(F)c2)C1 [Example 594, 1-(4-chloro-1-phenyl-3-(1-(trifluoromethylsulfonyl)piperidin-4-yl)-1H-pyrazol-5-yl)-3-((3S,4R)-4-(3,4-difluorophenyl)-1-(2-methoxyethyl)pyrrolidin-3-yl)urea hydrochloride] | < 100 |
| COCCN1C[C@@H](NC(=O)Nc2c(C)c([C@H]3CCCN3S(C)(=O)=O)nn2-c2ccccc2)[C@H](c2ccc(F)c(F)c2)C1 [Example 595, 1-((3S,4R)-4-(3,4-difluorophenyl)-1-(2-methoxyethyl)pyrrolidin-3-yl)-3-(4-methyl-3-((R)-1-(methylsulfonyl)pyrrolidin-2-yl)-1-phenyl-1H-pyrazol-5-yl)urea] | < 100 |
| COCCN1C[C@@H](NC(=O)Nc2c(C)c([C@H]3CCCN3C(C)=O)nn2-c2ccccc2)[C@H](c2ccc(F)c(F)c2)C1 [Example 596, 1-(3-((R)-1-acetylpyrrolidin-2-yl)-4-methyl-1-phenyl-1H-pyrazol-5-yl)-3-((3S,4R)-4-(3,4-difluorophenyl)-1-(2-methoxyethyl)pyrrolidin-3-yl)urea] | < 100 |
| COCCN1C[C@@H](NC(=O)Nc2c(C)c([C@H]3CCCN3C)nn2-c2ccccc2)[C@H](c2ccc(F)c(F)c2)C1 [Example 597, 1-((3S,4R)-4-(3,4-difluorophenyl)-1-(2-methoxyethyl)pyrrolidin-3-yl)-3-(4-methyl-3-((R)-1-methylpyrrolidin-2-yl)-1-phenyl-1H-pyrazol-5-yl)urea dihydrochloride] | < 100 |
| COCCN1C[C@@H](NC(=O)Nc2c(C)c([C@@H]3CCCN3C)nn2-c2ccccc2)[C@H](c2cc(F)cc(F)c2)C1 [Example 598, 1-((3S,4R)-4-(3,5-difluorophenyl)-1-(2-methoxyethyl)pyrrolidin-3-yl)-3-(4-methyl-3-((S)-1-methylpyrrolidin-2-yl)-1-phenyl-1H-pyrazol-5-yl)urea dihydrochloride] | < 100 |
| COCCN1C[C@@H](NC(=O)Nc2c(Br)c(COC3CCN(S(C)(=O)=O)CC3)nn2-c2ccccc2)[C@H](c2ccc(F)c(F)c2)C1 [Example 599, 1-(4-bromo-3-((1-(methylsulfonyl)piperidin-4-yloxy)methyl)-1-phenyl-1H-pyrazol-5-yl)-3-((3S,4R)-4-(3,4-difluorophenyl)-1-(2-methoxyethyl)pyrrolidin-3-yl)urea] | < 100 |
| COCCN1C[C@@H](NC(=O)Nc2c(Br)c(COC3CCN(C(C)=O)CC3)nn2-c2ccccc2)[C@H](c2ccc(F)c(F)c2)C1 [Example 600, 1-(3-((1-acetylpiperidin-4-yloxy)methyl)-4-bromo-1-phenyl-1H-pyrazol-5-yl)-3-((3S,4R)-4-(3,4-difluorophenyl)-1-(2-methoxyethyl)pyrrolidin-3-yl)urea] | < 100 |
| COCCN1C[C@@H](NC(=O)Nc2c(C)c(-c3nn(C(C)C)c(=O)o3)nn2-c2ccccc2)[C@H](c2ccc(F)c(F)c2)C1 [Example 601, 1-((3S,4R)-4-(3,4-difluorophenyvl)-1-(2-methoxyethyl)pyrrolidin-3-yl)-3-(3-(4-isopropyl-5-oxo-4,5-dihydro-1,3,4-oxadiazol-2-yl)-4-methyl-1-phenyl-1H-pyrazol-5-yl)urea] | < 100 |
| COCCN1C[C@@H](NC(=O)Nc2c(C)c(-c3nn(C)c(=O)o3)nn2-c2ccccc2)[C@H](c2ccc(F)c(F)c2)C1 [Example 602, 1-((3S,4R)-4-(3,4-difluorophenyl)-1-(2-methoxyethyl)pyrrolidin-3-yl)-3-(4-methyl-3-(4-methyl-5-oxo-4,5-dihydro-1,3,4-oxadiazol-2-yl)-1-phenyl-1H-pyrazol-5-yl)urea] | < 100 |
| COCCN1C[C@@H](NC(=O)Nc2c(C)c(Oc3cnccn3)nn2-c2ccccc2)[C@H](c2ccc(F)cc2)C1 [Example 603, 1-((3S,4R)-4-(4-fluorophenyl)-1-(2-methoxyethyl)pyrrolidin-3-yl)-3-(4-methyl-1-phenyl-3-(pyrazin-2-yloxy)-1H-pyrazol-5-yl)urea] | < 100 |
| COCCN1C[C@@H](NC(=O)Nc2c(C)c(-c3ccc(=O)n(C)c3)nn2-c2ccccc2)[C@H](c2cc(F)c(F)c(F)c2)C1 [Example 604, 1-((3S,4R)-1-(2-methoxyethyl)-4-(3,4,5-trifluorophenyl)pyrrolidin-3-yl)-3-(4-methyl-3-(1-methyl-6-oxo-1,6-dihydropyridin-3-yl)-1-phenyl-1H-pyrazol-5-yl)urea] | < 100 |
| COCCN1C[C@@H](NC(=O)Nc2c(C(F)(F)F)c(OC)nn2-c2ccccc2)[C@H](c2ccc(F)c(F)c2)C1 [Example 605, 1-((3S,4R)-4-(3,4-difluorophenyl)-1-(2-methoxyethyl)pyrrolidin-3-yl)-3-(3-methoxy-1-phenyl-4-(trifluoromethyl)-1H-pyrazol-5-yl)urea] | < 100 |
| COCCN1C[C@@H](NC(=O)Nc2c(C(F)(F)F)c(OC)nn2-c2ccccc2)[C@H](c2cc(F)cc(F)c2)C1 [Example 606, 1-((3S,4R)-4-(3,5-difluorophenyl)-1-(2-methoxyethyl)pyrrolidin-3-yl)-3-(3-methoxy-1-phenyl-4-(trifluoromethyl)-1H-pyrazol-5-yl)urea] | < 100 |
